In the supplement of paper PMC10307832:

Experiments:
Test in all cases: relative viability (nuclei count vs DMSO), 5 days (fraction); higher = more cells survive
[1] = test system: NCI-H2023
In short: (§1)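 Medians of duplicate plates are given as relative viability. That measure is the nuclei count in treated wells divided by the count in vehicle wells. Counts were taken on 4× images of lung cancer cell lines in 1536-well plates, 5 days after pin-tool dosing the day after seeding with one drug alone or a fixed anchor-drug dose plus five library-drug doses (not always all listed) in √10 steps.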

[2] = test system: NCI-H2085
In short: as §1

[3] = test system: NCI-H2170
In short: as §1

[4] = test system: NCI-H2347
In short: as §1

[5] = test system: NCI-H2405
In short: as §1

[6] = test system: NCI-H3122
In short: as §1

[7] = test system: NCI-H441
In short: as §1

[8] = test system: NCI-H520
In short: as §1

[9] = test system: NCI-H647
In short: as §1

[10] = test system: PC-14
In short: as §1

[11] = test system: RERF-LC-KJ
In short: as §1

[12] = test system: SW 900
In short: as §1

## C=C1C(=O)O[C@@H](CCCCCCCC)[C@@H]1C(=O)O [C-75] + COc1cccc2cc(-c3nc([C@H]4CC[C@H](C(=O)O)CC4)n4ncnc(N)c34)[nH]c12 [OSI-027] (partner 0.5 µM)
[1]; first compound 0.8 µM
  relative viability: 0.34
[1]; first compound 2.53 µM
  relative viability: 0.415
[1]; first compound 8 µM
  relative viability: 0.32
[2]; first compound 0.08 µM
  relative viability: 0.882
[2]; first compound 0.253 µM
  relative viability: 0.883
[2]; first compound 0.8 µM
  relative viability: 0.689
[2]; first compound 2.53 µM
  relative viability: 0.757
[2]; first compound 8 µM
  relative viability: 0.73
[3]; first compound 0.08 µM
  relative viability: 0.797
[3]; first compound 0.253 µM
  relative viability: 0.78
[3]; first compound 0.8 µM
  relative viability: 0.706
[3]; first compound 2.53 µM
  relative viability: 0.321
[3]; first compound 8 µM
  relative viability: 0.703
[4]; first compound 0.08 µM
  relative viability: 0.408
[4]; first compound 0.253 µM
  relative viability: 0.523
[4]; first compound 0.8 µM
  relative viability: 0.44
[4]; first compound 8 µM
  relative viability: 0.478
[5]; first compound 0.08 µM
  relative viability: 0.7
[5]; first compound 0.253 µM
  relative viability: 0.63
[5]; first compound 0.8 µM
  relative viability: 0.657
[5]; first compound 2.53 µM
  relative viability: 0.519
[5]; first compound 8 µM
  relative viability: 0.698
[6]; first compound 0.08 µM
  relative viability: 1.1
[6]; first compound 0.253 µM
  relative viability: 1.27
[6]; first compound 0.8 µM
  relative viability: 0.971
[6]; first compound 8 µM
  relative viability: 0.854
[7]; first compound 0.08 µM
  relative viability: 0.512
[7]; first compound 0.253 µM
  relative viability: 0.713
[7]; first compound 0.8 µM
  relative viability: 0.678
[7]; first compound 2.53 µM
  relative viability: 0.36
[7]; first compound 8 µM
  relative viability: 0.548
[8]; first compound 0.08 µM
  relative viability: 0.237
[8]; first compound 0.253 µM
  relative viability: 0.338
[8]; first compound 0.8 µM
  relative viability: 0.242
[8]; first compound 2.53 µM
  relative viability: 0.221
[8]; first compound 8 µM
  relative viability: 0.294
[9]; first compound 0.08 µM
  relative viability: 0.697
[9]; first compound 0.253 µM
  relative viability: 0.603
[9]; first compound 0.8 µM
  relative viability: 0.522
[9]; first compound 2.53 µM
  relative viability: 0.474
[9]; first compound 8 µM
  relative viability: 0.574
[10]; first compound 0.08 µM
  relative viability: 0.774
[10]; first compound 0.253 µM
  relative viability: 0.958
[10]; first compound 0.8 µM
  relative viability: 0.687
[10]; first compound 2.53 µM
  relative viability: 0.767
[10]; first compound 8 µM
  relative viability: 0.856
[11]; first compound 0.08 µM
  relative viability: 0.713
[11]; first compound 0.253 µM
  relative viability: 0.63
[11]; first compound 0.8 µM
  relative viability: 0.514
[11]; first compound 2.53 µM
  relative viability: 0.552
[11]; first compound 8 µM
  relative viability: 0.561
[12]; first compound 0.08 µM
  relative viability: 0.555
[12]; first compound 0.253 µM
  relative viability: 0.842
[12]; first compound 0.8 µM
  relative viability: 0.441
[12]; first compound 2.53 µM
  relative viability: 0.509
[12]; first compound 8 µM
  relative viability: 0.45
